Data from publication PMC12540922, “Selective Antimicrobial and Cytotoxic Effects of Hop Compounds to Combat Poultry Antimicrobial Resistance” (MicrobiologyOpen, 2025).
Values after ≈ are worked out from the molar mass of the structure shown. “Also recorded” adds a separate entry of the source. Structures can show the parent of a compound that is named as a salt. Blank lines part the entries; values can stand above or below the molecule they belong to.

Columns and labels:
[1] = system: M. luteus; parameters: method as in Seniya et al. [2012]; details: against M. luteus; ref Seniya et al. [2012]; cited from earlier work
[2] = system: Bacillus subtilis (DSM 23778); assay: Broth dilution assay, antibacterial activity; format: cell-based; details: for MIC50: Bacillus subtilis, DSM23778, B. subtilis, concentration inhibiting 50% of growth rate, TSB medium, 28°C, 24 h, mean ± SD; for Selectivity index (SI), quotient of IC50 and MIC50: IC50 UMNSAH/DF-1 / MIC50 B. subtilis
Procedure: Bacillus subtilis (DSM 23778) was obtained from DSMZ (German Collection of Microorganisms and Cell Cultures GmbH). It was cultured on tryptic soy broth (TSB, DSMZ #545) agar plates or in TSB containing 17 g L^−1 peptone from casein, 3 g L^−1 peptone from soy, 2.5 g L^−1 D‐(+)‐glucose, 5 g L^−1 NaCl, and 2.5 g L^−1 K2HPO4 (Carl Roth, Karlsruhe, Germany) under aerobic conditions at 28°C.
(§1) Antibacterial activity of hop compounds against Gram‐positive M. luteus and B. subtilis was analyzed using Broth Dilution Assay. Twofold dilutions of hop compounds were prepared in NB or TSB medium, ranging from theoretical concentrations of 500 to 0.5 µg mL^−1 and transferred to 48‐well microtiter plates (Sarstedt, Nuembrecht, Germany). Gentamicin sulfate was used as a positive control. The optical density (OD) of a preculture prepared on the previous day was measured at 600 nm in a spectrophotometer (Implen, Muenchen, Germany). The inoculum was then diluted with NB or TSB medium to the desired OD600 nm of 0.1 and transferred to all wells (150 µL) except the sterile control, which consists only of medium. The ODs of the cultures were measured every hour at 750 nm using a plate reader (Tecan, Maennedorf, Switzerland) for 24 h. In the meantime, the plates were incubated at 37°C or 28°C without shaking. The chosen wavelength of 750 nm resulted from previous experiments with hop extracts to avoid an overlap of the absorption spectrum with chlorophyll (Guidi et al. [2017]). The growth rates were obtained from the exponential range of the generated growth curves. All values were normalized to the growth control (without hop compounds). MIC50 (minimum concentration of a substance that inhibits the growth of 50% of the bacteria tested) values were calculated by nonlinear regression using GraphPad Prism model “log(inhibitor) versus response,” where the basal response was subtracted and the bottom was set to a constant value (0). Means and standard deviations (SDs) were calculated from two biological duplicates, each consisting of three technical replicates.

[3] = MTT based cell viability assay (cytotoxic activity); details: chicken, UMNSAH/DF-1 chicken fibroblast cells, UMNSAH/DF-1, 48 h treatment, mean ± SD
Procedure: UMNSAH/DF‐1 cell line was purchased from Cytion (Eppelheim, Germany). The cells were maintained in Dulbecco's Modified Eagle Medium (DMEM, Sigma‐Aldrich, St. Louis, USA) containing 10% heat‐inactivated fetal bovine serum (FBS, Sigma‐Aldrich, St. Louis, USA) and cultured at 37°C and 5% CO2 in a humidified atmosphere. Cell lines were serially passaged after being detached with Accutase solution (Sigma‐Aldrich, St. Louis, USA).
The hop compounds were investigated for their cytotoxic effect on the chicken cell line UMNSAH/DF‐1, using the 3‐(4,5‐dimehtylthiazol‐2‐yl)‐2,5‐diphenyltetrazolium bromide (MTT) based cell viability assay. Cells were seeded in 96‐well microtiter plates (Sarstedt, Nümbrecht, Germany) with a cell density of 0.05 × 10^6 cells per mL and 100 µL per well and incubated for 24 h (37°C, 5% CO2). After that the medium was discarded and a dilution series of hop compounds in DMEM was added to the wells (100 µL), ranging from theoretical concentrations of 200 µg mL^−1 to 20 ng mL^−1. For vitality control, 20% dimethyl sulfoxide (DMSO) (TH Geyer, Renningen, Germany) was added, and for growth control, culture medium was added. The cytotoxic measurements were also performed with gentamicin sulfate as a control. Treated cells were further incubated for 48 h (37°C, 5% CO2). […] Means and SDs were calculated from two biological duplicates, each consisting of three technical replicates.

[4] = system: Micrococcus luteus (DSM 1605); assay: Broth dilution assay, antibacterial activity; format: cell-based; details: for MIC50: Micrococcus luteus, DSM1605, M. luteus, concentration inhibiting 50% of growth rate, NB medium, 37°C, 24 h, mean ± SD
Procedure: Micrococcus luteus (DSM 1605) was obtained from DSMZ (German Collection of Microorganisms and Cell Cultures GmbH). It was cultured on nutrient agar or in nutrient broth (NB, DSMZ #1) containing 5 g L^−1 peptone from casein (Carl Roth, Karlsruhe, Germany) and 3 g L^−1 meat extract (Carl Roth, Karlsruhe, Germany) under aerobic conditions at 37°C.
as §1

[5] = Solubility of hop compounds in aqueous media (HPLC of supernatant); format: physicochemical; details: 10% (v/v) ethanol; for Solubility in aqueous medium (in words): DMEM with/without 10% FBS, NB, TSB, theoretical 1 mg mL^−1; for solubility: culture media DMEM, NB and TSB, aqueous with cosolvent or surfactant or cyclodextrin, kinetic from dmso stock, in the media selected (DMEM, NB, TSB), read-out: Solubility limit
Procedure: High‐performance liquid chromatography (HPLC) measurements were performed using an NUCLEODUR C18 Gravity‐SB (3 µm, 250 × 2 mm) column equipped with a precolumn (Machery Nagel, Düren, Germany) in a Shimadzu HPLC system (Kyoto, Japan). The flow rate was set to 0.6 mL min^−1 at 40°C using 80% methanol/20% phosphoric acid (0.5% [v/v] in H2O) as mobile phase. Media samples were 10‐fold diluted in the mobile phase, incubated for 10 min at 40°C and centrifuged at 10,000g for 10 min. 10 μL of filtered (polytetrafluoroethylene, 0.2 µm) samples was injected for analysis. Identification and quantification of isoxanthohumol, xanthohumol, co‐/n‐/adhumulone, co‐/n‐/adlupulone, and co‐/n‐/adisohumulone by a UV‐Detector (314 nm for 0–24 min, and 270 nm for 24.01–45 min) were performed by corresponding standard curves. The preparation of hop compound solutions was carried out analogously for all three media NB, TSB, and DMEM for use in bacterial and avian cell culture. Hop compounds were provided by Hopsteiner (Mainburg, Germany) in the following purities: isoxanthohumol (81.0%), xanthohumol (90.0%), humulone (88.5%), lupulone (74.3%), and isohumulone (91.0%). The hop compounds were dissolved in ethanol to 10 mg mL^−1. From this stock solution, 1:10 dilutions were prepared in the respective medium, resulting in precipitation due to their hydrophobic character. After centrifugation (10,000g, 10 min), the clear supernatant was transferred to a new tube and used for further experiments. […] This is why the actual concentration of the compounds in the aqueous medium was analyzed using HPLC and used for subsequent calculations. Due to the hydrophobic character of hop pure compounds, a complete dissolution in an aqueous medium cannot be assumed. […] To assess the influence of FBS on solubility, DMEM without serum was also tested. For humulone, lupulone, and isohumulone, the three derivatives (co‐/n‐/ad‐) are considered together in this figure and also in the following.

[6] = system: human prostate (PC3) and colon (HT29) cancer cell lines; parameters: method as in Farag and Wessjohann [2013]; details: ref Farag and Wessjohann [2013]; cited from earlier work
[7] = system: MCF-7 breast cancer cell line; parameters: method as in Miranda et al. [1999]; details: ref Miranda et al. [1999], cited from earlier work
[8] = system: A-2780 ovarian cancer cell line; parameters: method as in Miranda et al. [1999]; details: ref Miranda et al. [1999], cited from earlier work
[9] = system: normal human fibroblasts (BJ cells); parameters: method as in Klimek et al. ([2021]); details: ref Klimek et al. ([2021]); cited from earlier work
[10] = system: normal murine hepatocytes (AML 12 cell line); parameters: method as in Ho et al. [2008]; details: ref Ho et al. [2008]; cited from earlier work
[11] = read-out: IC50 (antiproliferative effect)

SMILES: CC1(C)S[C@@H]2[C@H](NC(=O)[C@H](N)c3ccccc3)C(=O)N2[C@H]1C(=O)O [ampicillin]
MIC90 [1]: 2500 µg/mL (≈ 7150 µM)

SMILES: CO/N=C(\C(=O)N[C@@H]1C(=O)N2C(C(=O)O)=C(CSc3nc(=O)c(=O)[nH]n3C)CS[C@H]12)c1csc(N)n1 [ceftriaxone]
MIC90 [1]: 500 µg/mL (≈ 902 µM)

SMILES: COc1cc(O)c(CC=C(C)C)c2c1C(=O)CC(c1ccc(O)cc1)O2 (stereo not drawn) [isoxanthohumol]
Effect compared with xanthohumol (in words) [7]: comparable effect | Times less effective than xanthohumol [8]: 35 times | Solubility in aqueous medium (in words) [5]: minimal; also recorded: moderately dissolved; also recorded: limited solubility

SMILES: [H]/N=C(/N)N[C@H]1[C@H](O)[C@@H](O)[C@H](O[C@@H]2O[C@@H](C)[C@](O)(C=O)[C@H]2O[C@@H]2O[C@@H](CO)[C@H](O)[C@@H](O)[C@@H]2NC)[C@@H](N/C(N)=N\[H])[C@@H]1O [streptomycin]
MIC90 [1]: 500 µg/mL (≈ 860 µM)

More lines, main results first:

MIC50 [2]: 0.73 ± 0.2 µg/mL | MIC50 [4]: 0.26 ± 0.08 µg/mL
SMILES: CNC(C)C1CCC(N)C(OC2C(N)CC(N)C(OC3OCC(C)(O)C(NC)C3O)C2O)O1 (stereo not drawn) [gentamicin sulfate, reference compound]
IC50 at 48 h [3]: 1440 ± 390 µg/mL

Solubility in aqueous medium (in words) [5]: highest | solubility [5]: ~1000 µg/mL (≈ 2760 µM)
SMILES: CC(C)=CCC1C(=O)C(C(=O)CC(C)C)=C(O)C(O)(CC=C(C)C)C1=O (stereo not drawn) [humulone]
Selectivity index (SI), quotient of IC50 and MIC50 [2]: around 6 | IC50 [6]: 13.2 to 15.5 µg/mL

MIC50 [2]: 0.1 ± 0.0029 µg/mL (≈ 0.241 µM) | MIC50 [4]: 1.5 ± 0.48 µg/mL (≈ 3.62 µM) | solubility [5]: ~1000 µg/mL (≈ 2410 µM)
SMILES: CC(C)=CCC1=C(O)C(C(=O)CC(C)C)=C(O)C(CC=C(C)C)(CC=C(C)C)C1=O [lupulone]
IC50 at 48 h [3]: 1.5 ± 0.034 µg/mL (≈ 3.62 µM) | IC50 [6]: 2.4 to 8.1 µg/mL

MIC50 [4]: 0.95 ± 0.04 µg/mL (≈ 2.68 µM) | Solubility in aqueous medium (in words) ([5]; listed as Xanthohumol): limited solubility
SMILES: COc1cc(O)c(CC=C(C)C)c(O)c1C(=O)/C=C/c1ccc(O)cc1 [xanthohumol]
Selectivity index (SI), quotient of IC50 and MIC50 [2]: around 6 | IC50 [7, 11]: 13.3 µM | Selectivity index (SI), quotient of IC50 and MIC50 ([4]; IC50 UMNSAH/DF-1 / MIC50 M. luteus): 5.5 ± 0.36 | IC50 [8, 11]: 0.52 µM | IC50 [9]: 26.56 µg/mL (≈ 74.9 µM) | Solubility in aqueous medium (in words) [5]: minimal; also recorded: only a small proportion of xanthohumol could be recovered | IC50 [10]: 211 µM
